The test system of this test is PGE2 production. Type of test: cell-based, murine. The conditions noted are these: Mus musculus, RAW264.7; RAW 264.7, test material 60 min prior to 1.0 μg/mL LPS, PGE2 18 h post stimulation; read-out: IC50 (median inhibitory concentration for PGE2).

This is an account of results in US7914831B2, “Synergistic anti-inflammatory pharmaceutical compositions and related methods using curcuminoids or methylxanthines” (priority 2004, dated 2011).

Converted amounts (≈) assume the structure as drawn.

As to `Cn1c(=O)c2c(ncn2C)n(C)c1=O` [Caffeine, caffeine], the IC50 stood at 25 mg/L (≈ 129 µM).
